Laboratory results reported in patent publication US8765784B2, “Positive allosteric modulators of MGLUR2” (Merck Sharp & Dohme Corp., priority 2010, dated 2014).

Biological target: T1, human mGluR2 (Homo sapiens, UniProt Q14416)
T1 construct: expressed in transfected cells
Experiment: FLIPR Ca2+ mobilization assay, potentiation of mGluR2
Format: cell-based
Conditions: CHO dhfr- cells expressing recombinant human mGluR2 and Gα16; potentiation after EC20 glutamate (900 nM); read-out: IC50 (Representative FLIPR EC50 Values)
Description: Activity in potentiating the mGluR2 receptor may be determined as follows. The compounds of the present invention are tested in a fluorescence laser imaging plate reader (FLIPR) based assay. This assay is a common functional assay to monitor Ca^2+ mobilization in whole cells expressing recombinant receptor coupled with a promiscuous G-protein. CHO dhfr-cells stably expressing recombinant human mGluR2 and Gα16 loaded with Fluo-4 AM (Invitrogen, Carlsbad Calif.) are treated with dose responses of compounds and the Ca^2+ response is monitored on a FLIPR384 (Molecular Devices, Sunnydale Calif.) for agonist activity. The potentiation response is monitored after a subsequent addition of an EC20 concentration of glutamate (900 nM). The maximum calcium response at each concentration of compound for agonist or potentiation are plotted as dose responses and the curves are fitted with a four parameters logistic equation giving EC50 and Hill coefficient using the iterative non linear curve fitting software program.

T1 sequence (Q14416 19-872): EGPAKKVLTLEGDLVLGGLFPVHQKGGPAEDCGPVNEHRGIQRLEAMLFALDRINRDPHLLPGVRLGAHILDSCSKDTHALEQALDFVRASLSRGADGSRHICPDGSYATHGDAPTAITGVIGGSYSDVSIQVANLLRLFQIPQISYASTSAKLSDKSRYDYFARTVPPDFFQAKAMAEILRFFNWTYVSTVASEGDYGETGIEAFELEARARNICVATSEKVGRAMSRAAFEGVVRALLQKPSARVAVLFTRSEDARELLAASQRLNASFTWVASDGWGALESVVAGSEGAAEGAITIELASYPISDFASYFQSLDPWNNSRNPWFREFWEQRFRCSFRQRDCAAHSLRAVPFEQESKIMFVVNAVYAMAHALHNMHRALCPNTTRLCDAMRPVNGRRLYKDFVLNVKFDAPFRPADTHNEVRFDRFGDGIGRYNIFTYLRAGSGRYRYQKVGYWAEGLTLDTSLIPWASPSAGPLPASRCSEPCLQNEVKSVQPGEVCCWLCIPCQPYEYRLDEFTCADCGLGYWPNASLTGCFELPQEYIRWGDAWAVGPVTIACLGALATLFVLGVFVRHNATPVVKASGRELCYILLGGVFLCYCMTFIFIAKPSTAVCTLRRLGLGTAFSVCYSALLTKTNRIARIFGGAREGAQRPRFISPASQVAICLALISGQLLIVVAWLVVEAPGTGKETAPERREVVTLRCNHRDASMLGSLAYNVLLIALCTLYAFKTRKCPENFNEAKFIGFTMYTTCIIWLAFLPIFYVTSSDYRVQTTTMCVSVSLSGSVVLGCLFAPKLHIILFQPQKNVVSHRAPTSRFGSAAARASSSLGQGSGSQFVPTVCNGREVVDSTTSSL

Compound	EC50 [nM]
Cc1ccc(CN2CCN(S(C)(=O)=O)CC2)cc1-c1ccc2c(n1)n(C)c(=O)n2CC1CC1(F)F (stereo not shown) [Compound 56-4, 1-[(2,2-difluorocyclopropyl)methyl]-3-methyl-5-(2-methyl-5-{[4-(methylsulfonyl)piperazin-1-yl]methyl}phenyl)-1,3-dihydro-2H-imidazo[4,5-b]pyridin-2-one]	35
Cc1ccc(CC(C)(C)O)cc1-c1ccc2c(n1)n(C)c(=O)n2CC(C)(C)C [Compound 81-3, 1-(2,2-dimethylpropyl)-5-[5-(2-hydroxy-2-methylpropyl)-2-methylphenyl]-3-methyl-1,3-dihydro-2H-imidazo[4,5-b]pyridin-2-one]	43
Cc1ccc(CN2CCN(S(C)(=O)=O)CC2)cc1-c1ccc2c(n1)n(C)c(=O)n2CC(C)(C)C [Compound 51-10, 1-(2,2-dimethylpropyl)-3-methyl-5-(2-methyl-5-{[4-(methylsulfonyl)piperazin-1-yl]methyl}phenyl)-1,3-dihydro-2H-imidazo[4,5-b]pyridin-2-one]	26
Cn1c(=O)n(CC(C)(C)C)c2ccc(-c3cc(Oc4ccnc(C#N)c4)ccc3C#N)nc21 [Compound 16-3, 4-{4-cyano-3-[1-(2,2-dimethylpropyl)-3-methyl-2-oxo-2,3-dihydro-1H-imidazo[4,5-b]pyridin-5-yl]phenoxy}pyridine-2-carbonitrile]	8
Cn1c(=O)n(CC(C)(C)C)c2ccc(-c3cccc(C(C)(C)O)c3F)nc21 [Compound 60-1, 1-(2,2-dimethylpropyl)-5-[2-fluoro-3-(1-hydroxy-1-methylethyl)phenyl]-3-methyl-1,3-dihydro-2H-imidazo[4,5-b]pyridin-2-one]	25
CC(=O)N1CCN(Cc2ccc(C)c(-c3ccc4c(n3)n(C)c(=O)n4CC(C)(C)C)c2)CC1 [Compound 51-9, 5-{5-[(4-acetylpiperazin-1-yl)methyl]-2-methylphenyl}-1-(2,2-dimethylpropyl)-3-methyl-1,3-dihydro-2H-imidazo[4,5-b]pyridin-2-one]	226
CC(=O)N1CCN(Cc2ccc(C#N)c(-c3ccc4c(n3)n(C)c(=O)n4CC(C)(C)C)c2)CC1 [Compound 21-47, 4-[(4-acetylpiperazin-1-yl)methyl]-2-[1-(2,2-dimethylpropyl)-3-methyl-2-oxo-2,3-dihydro-1H-imidazo[4,5-b]pyridin-5-yl]benzonitrile]	74
CC(O)C(=O)N1CCCC(c2cccc(-c3ccc4c(n3)n(C)c(=O)n4CC(C)(C)C)c2)C1 (stereo not shown) [Compound 65-6, 1-(2,2-dimethylpropyl)-5-{3-[1-(2-hydroxypropanoyl)piperidin-3-yl]phenyl}-3-methyl-1,3-dihydro-2H-imidazo[4,5-b]pyridin-2-one]	28
Cn1c(=O)n(CC(C)(C)C)c2ccc(-c3cc(CN4CCS(=O)(=O)CC4)ccc3C#N)nc21 [Compound 21-11, 2-[1-(2,2-dimethylpropyl)-3-methyl-2-oxo-2,3-dihydro-1H-imidazo[4,5-b]pyridin-5-yl]-4-[(1,1-dioxidothiomorpholin-4-yl)methyl]benzonitrile]	34
Cn1c(=O)n(CC(C)(C)C)c2ccc(-c3cccc(CN4CCc5onc(O)c5C4)c3F)nc21 [Compound 61-4, 1-(2,2-dimethylpropyl)-5-{2-fluoro-3-[(3-hydroxy-6,7-dihydroisoxazolo[4,5-c]pyridin-5(4H)-yl)methyl]phenyl}-3-methyl-1,3-dihydro-2H-imidazo[4,5-b]pyridin-2-one]	11
COC(=O)NC(C)(C)c1ccc(C)c(-c2ccc3c(n2)n(C)c(=O)n3CC(C)(C)C)c1 [Compound 42-3, Methyl (1-{3-[1-(2,2-dimethylpropyl)-3-methyl-2-oxo-2,3-dihydro-1H-imidazo[4,5-b]pyridin-5-yl]-4-methylphenyl}-1-methylethyl)carbamate]	37
Cn1c(=O)n(CC(C)(C)C)c2ccc(-c3cc(CN4CCN(S(C)(=O)=O)CC4)ccc3C#N)nc21 [Compound 21-45, 2-[1-(2,2-dimethylpropyl)-3-methyl-2-oxo-2,3-dihydro-1H-imidazo[4,5-b]pyridin-5-yl]-4-{[4-(methylsulfonyl)piperazin-1-yl]methyl}benzonitrile]	21
Cn1c(=O)n(CC(C)(C)C)c2ccc(-c3cccc(N4CCN(C(=O)c5ccon5)CC4)c3)nc21 [Compound 66-4, 1-(2,2-dimethylpropyl)-5-{3-[4-(isoxazol-3-ylcarbonyl)piperazin-1-yl]phenyl}-3-methyl-1,3-dihydro-2H-imidazo[4,5-b]pyridin-2-one]	45
